Results: paper PMC5423295, “Positive Modulatory Interactions of NMDA Receptor GluN1/2B Ligand Binding Domains Attenuate Antagonists Activity” (Frontiers in Pharmacology, 2017)

Assays:
Experiment in all cases: two-electrode voltage clamp, Xenopus oocytes
Assay type in all cases: cell-based
Details in all cases: read-out: EC50 or IC50
[1] = biological target: T1, GluN1/2B NMDA receptor (GluN1a + GluN2B) (Rattus norvegicus, UniProt P35439+Q00960, P35439:E781A)
T1 construct: gene Grin1; cRNAs 1:1-3 in Xenopus oocytes; heterotetramer
T1 sequence (Q00960 27-1482, other chains not shown): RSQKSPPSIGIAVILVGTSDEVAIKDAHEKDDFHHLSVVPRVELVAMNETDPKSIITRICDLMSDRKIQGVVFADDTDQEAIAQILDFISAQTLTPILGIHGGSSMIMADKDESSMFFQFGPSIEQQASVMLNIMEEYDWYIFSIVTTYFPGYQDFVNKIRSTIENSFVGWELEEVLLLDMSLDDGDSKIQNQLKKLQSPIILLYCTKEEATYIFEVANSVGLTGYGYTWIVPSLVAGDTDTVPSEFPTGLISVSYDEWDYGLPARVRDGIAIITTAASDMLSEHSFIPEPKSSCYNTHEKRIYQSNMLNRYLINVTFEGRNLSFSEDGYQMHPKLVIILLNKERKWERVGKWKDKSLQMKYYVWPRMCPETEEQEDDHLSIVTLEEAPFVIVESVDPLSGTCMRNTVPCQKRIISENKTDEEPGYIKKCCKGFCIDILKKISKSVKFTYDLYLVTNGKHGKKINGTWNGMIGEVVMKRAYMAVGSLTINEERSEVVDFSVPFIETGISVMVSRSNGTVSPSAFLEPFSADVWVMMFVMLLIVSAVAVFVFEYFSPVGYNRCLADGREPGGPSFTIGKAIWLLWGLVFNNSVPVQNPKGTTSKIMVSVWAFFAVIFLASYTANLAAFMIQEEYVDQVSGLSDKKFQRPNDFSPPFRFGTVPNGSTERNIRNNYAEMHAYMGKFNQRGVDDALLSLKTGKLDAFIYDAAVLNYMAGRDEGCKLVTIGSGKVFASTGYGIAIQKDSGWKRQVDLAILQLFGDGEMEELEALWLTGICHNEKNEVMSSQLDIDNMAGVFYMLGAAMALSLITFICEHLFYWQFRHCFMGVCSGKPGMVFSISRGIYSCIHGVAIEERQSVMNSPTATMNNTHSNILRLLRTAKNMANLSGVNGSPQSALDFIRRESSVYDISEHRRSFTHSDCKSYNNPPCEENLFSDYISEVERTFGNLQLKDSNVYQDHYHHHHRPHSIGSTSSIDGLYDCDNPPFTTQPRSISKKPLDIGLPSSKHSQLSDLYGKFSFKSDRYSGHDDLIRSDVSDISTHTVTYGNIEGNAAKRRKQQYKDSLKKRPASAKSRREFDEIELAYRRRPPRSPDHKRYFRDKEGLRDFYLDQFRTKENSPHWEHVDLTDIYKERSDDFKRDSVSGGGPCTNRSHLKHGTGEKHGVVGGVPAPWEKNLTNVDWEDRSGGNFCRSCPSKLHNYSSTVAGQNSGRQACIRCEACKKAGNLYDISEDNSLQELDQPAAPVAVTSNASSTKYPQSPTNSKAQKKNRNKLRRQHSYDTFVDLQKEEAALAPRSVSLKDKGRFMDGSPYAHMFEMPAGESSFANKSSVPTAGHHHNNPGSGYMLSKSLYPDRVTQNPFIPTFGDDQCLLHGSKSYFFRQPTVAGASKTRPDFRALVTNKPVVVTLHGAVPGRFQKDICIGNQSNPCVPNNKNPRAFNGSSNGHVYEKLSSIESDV
Text: (§1) two-electrode voltage clamp, Xenopus oocytes on GluN1/2B NMDA receptor (GluN1a + GluN2B)

[2] = biological target: T2, GluN1/2B NMDA receptor (GluN1a + GluN2B) (Rattus norvegicus, UniProt P35439+Q00960, P35439:Y535A)
T2 construct: gene Grin1; cRNAs 1:1-3 in Xenopus oocytes; heterotetramer
T2 sequence (Q00960 27-1482, other chains not shown): as above
Text: as §1

[3] = biological target: T3, GluN1/2B NMDA receptor (GluN1a + GluN2B) (Rattus norvegicus, UniProt P35439+Q00960)
T3 construct: gene Grin1; cRNAs 1:1-3 in Xenopus oocytes; heterotetramer
T3 sequence (Q00960 27-1482, other chains not shown): as above

## O=C(O)c1cc(O)c2c(Cl)cc(Cl)cc2n1 [5,7-DCKA]
[1]
  IC50: 610 ± 90 nM
[2]
  IC50: 160 ± 20 nM
[3]
  IC50: 4.63 ± 0.33 µM

## NC(CCCP(=O)(O)O)C(=O)O (racemic) [DL-AP5]
[3]
  IC50: 35.7 ± 1.3 µM
